Literature values, collected in patent US7105176B2, “Production of solid preparations of water-soluble, sparingly water-soluble or water-insoluble active compounds” (BASF Aktiengesellschaft, priority 2000, dated 2006).

Settings: at 314 nm

Q: With CCCCC(CC)COC(=O)c1ccc(Nc2nc(Nc3ccc(C(=O)OCC(CC)CCCC)cc3)nc(Nc3ccc(C(=O)OCC(CC)CCCC)cc3)n2)cc1 (stereo not shown) [Uvinul® T150, 2,4,6-trianilino-p-(carbo-2′-ethylhexyl-1′-oxy)-1,3,5-triazine] as the molecule, how does the extinction coefficient read?
A: > 1500
